Data published in article PMC12154426, “TPP-Based Nanovesicles Kill MDR Neuroblastoma Cells and Induce Moderate ROS Increase, While Exerting Low Toxicity Towards Primary Cell Cultures: An In Vitro Study” (International Journal of Molecular Sciences, 2025).
“And” between values parts separate entries of the source, which are not always exact repeats. Equal values may be shown once.

Assays:
spinal cord astrocytes = assay: MTT cytotoxicity assay on spinal cord astrocyte primary cell cultures; format: cell-based, C57BL/6J mice; conditions: for IC50: 0.12–11.73 µM
Source text: (§1) Similarly to the assessment of haemolytic toxicity, the evaluation of cytotoxicity towards mammalian cells is another pivotal step to afford in the early stage of drug development, before undertaking other costly and time-consuming in vivo experiments. […] The cytotoxicity of quaternary phosphonium salts (QPSs) depends mainly on their physicochemical characteristics, including the number of carbon atoms of alkyl chains, the presence of aromatic ring(s) on which the P^+ cationic charge can delocalize, the type of counter anions, the possible colloidal properties, and the probable capability to form nano aggregates. The specific types of cells exposed to QPSs can further influence their cytotoxicity. In this regard, the constituents of membranes of cancer cells are different from those of mammalian cells. This makes them more susceptible to the disruptive action of cationic compounds, thus making QPSs’ possible cytotoxicity towards tumour cells higher than towards normal ones. Anyway, a certain cytotoxicity could manifest also in normal cells and quantifying it is mandatory. Based on these considerations, although NB is a neuroendocrine tumour which derives from neural crest cells, we investigated the BPPB toxic effects on primary cell cultures, namely spinal cord astrocytes and cortical neurons. Astrocyte primary cultures have emerged as an important tool for understanding the responses of normal cells under both physiological and pathological conditions. On the other hand, primary neuronal cell cultures are best suited for drug discovery and drug development. Primary cell cultures freshly prepared from animals reproduce physiological conditions astonishingly like the in vivo situation. As for our knowledge, it is the first time that the cytotoxicity of a bola amphiphilic compound is assessed on primary cultures of astrocytes and neurons. More generically, the existent studies on the cytotoxicity of synthetic QPSs, or of a generic exogenous synthetic cationic organic compound or polymer on astrocytes and neurons primary cell cultures, are limited. As examples, upon a rapid survey, we have found a study on the mechanism by which amine-modified cationic polystyrene nanoparticles induced cell death in a human brain astrocytoma cell line, but not in primary astrocytes. A study on the mechanism by which endogenous eosinophil cationic protein/RNase 3 induced cell death in primary astrocytes was found, but exogenous synthetic cationic compounds were not considered. Concerning primary neurons, the cytotoxicity of both a commercial (LA2000) and a newly prepared cationic lipid (Arg (TFA^−)) vs. primary neurons was assessed by Aoshima et al.. The cytotoxicity of a library of 80 compounds, among which only 2/3 molecules were cationic salts, was evaluated in human-induced pluripotent stem cell (iPSC)-derived neural stem cells, neurons, and astrocytes by Pei et al.. Vidal et al. assessed the neurotoxicity of a cationic fourth generation (G4) amine dendrimer (G4-NH2) towards primary neuron cell cultures. […] Cell viability in neurons and astrocytes, treated with increasing concentrations of BPPB for 24, 48, and 72 h, was assessed using the MTT essay, which is a method endowed with simplicity, convenience, quantitative and high throughput, as well as reproducibility. MTT is a well-established method for assessing cell viability, and its reliability is supported by standardized protocols in many areas of research.
Astrocytes were prepared from the spinal cord of neonatal 2-day-old C57BL/6J mice as previously described, with minor modifications. Briefly, two days after birth, pups (P1-2) were euthanized by cervical dislocation by trained personnel, and spinal cords were rapidly removed. […]

cortical neurons = assay: MTT cytotoxicity assay on cortical neuron primary cell cultures; format: cell-based, Sprague Dawley rat; conditions: for IC50: 0.12–11.73 µM
Source text: as §1
Cortical neurons were prepared from the cortex of E16-E17 Sprague Dawley rat embryos, as previously described. The cortex was removed under binocular dissection (Nikon SMZ-2T, Tokyo, Japan) in a physiologic medium composed of 120 mM NaCl, 5 mM KCl, 25 mM HEPES, and 9 mM glucose (HIB, pH 7.4) at 4 °C. […]

RBCs = assay: Haemolytic toxicity on red blood cells; format: cell-based; conditions: for SI 24 h: 24 h exposure of NB cells; for SI 48 h: 48 h exposure of NB cells; for SI 72 h: 72 h exposure of NB cells
Protocol: The IC50 values reported in Table 3 were determined after 24, 48, and 72 h of exposure of NB cells and primary cortical astrocytes and neurons to BPPB, and the HC50 determined on RBCs after the time of experiments, as for protocol, was used to calculate the SIs according to Equation (1), as reported in Table 4.

Compound: c1ccc([P+](CCCCCCCCCCCC[P+](c2ccccc2)(c2ccccc2)c2ccccc2)(c2ccccc2)c2ccccc2)cc1 [BPPB, 1,1-(1,12-dodecanediyl)-bis-[1,1,1]-triphenyl phosphonium di-bromide]
- cell viability (spinal cord astrocytes; 1.17 µM, 48 h): 72.17%
- cell viability (spinal cord astrocytes; 1.17 µM, 72 h): 69.31%
- cell viability (spinal cord astrocytes; 2.93 µM, 24 h): 74.95%
- cell viability (spinal cord astrocytes; 8.80 µM, 24 h): 47.14%
- cell viability (spinal cord astrocytes; 8.80 µM, 72 h): 42.70%
- cell viability (spinal cord astrocytes; 11.73 µM, 24 h): 20.22%
- cell viability (spinal cord astrocytes; 11.73 µM, 48 h): 45.18%
- IC50 (spinal cord astrocytes; 24 h exposure): ~7.04 µM and 7.04 µM
- IC50 (spinal cord astrocytes; 48 h exposure): 11 ± 5.09 µM
- IC50 (spinal cord astrocytes; 72 h exposure): 5.09 ± 1.22 µM
- SI values with respect to primary spinal cord astrocytes (spinal cord astrocytes; HTLA 230 and HTLA ER, all exposure timings): 4.25–23.73
- selectivity index values (spinal cord astrocytes; NB cells with respect to neurons and astrocytes, maximum): up to 23.7
- SI 24 h (spinal cord astrocytes; Spinal cord astrocytes vs. HTLA 230, 24 h): 7.61
- SI 48 h (spinal cord astrocytes; Spinal cord astrocytes vs. HTLA 230, 48 h): 23.73
- SI 72 h (spinal cord astrocytes; Spinal cord astrocytes vs. HTLA 230, 72 h): 13.09
- SI 24 h (spinal cord astrocytes; Spinal cord astrocytes vs. HTLA ER, 24 h): 5.69
- SI 48 h (spinal cord astrocytes; Spinal cord astrocytes vs. HTLA ER, 48 h): 8.10
- SI 72 h (spinal cord astrocytes; Spinal cord astrocytes vs. HTLA ER, 72 h): 4.25
- cell viability (cortical neurons; 0.12 µM, 24 h): 89.49%
- cell viability (cortical neurons; 0.12 µM, 48 h): 96.77%
- cell viability (cortical neurons; 0.12 µM, 72 h): 95.90%
- cell viability (cortical neurons; 0.29 µM, 72 h): 71.80%
- cell viability (cortical neurons; 1.80 µM, 48 h): 57.15%
- cell viability (cortical neurons; 11.73 µM (10.0 µg/mL), 24 h): 14.80%
- cell viability (cortical neurons; 11.73 µM (10.0 µg/mL), 48 h): 20.03%
- cell viability (cortical neurons; 11.73 µM (10.0 µg/mL), 72 h): 10.63%
- IC50 (cortical neurons; 24 h exposure): 1.56 ± 0.278 µM
- IC50 (cortical neurons; 48 h exposure): 2.21 ± 0.337 µM
- IC50 (cortical neurons; 72 h exposure): 0.763 ± 0.127 µM
- SI 24 h (cortical neurons; Cortical neurons vs. HTLA 230, 24 h): 1.69
- SI 48 h (cortical neurons; Cortical neurons vs. HTLA 230, 48 h): 4.78
- SI 72 h (cortical neurons; Cortical neurons vs. HTLA 230, 72 h): 1.96
- SI 24 h (cortical neurons; Cortical neurons vs. HTLA ER, 24 h): 1.26
- SI 48 h (cortical neurons; Cortical neurons vs. HTLA ER, 48 h): 1.63
- SI 72 h (cortical neurons; Cortical neurons vs. HTLA ER, 72 h): 0.64
- SI values with respect to primary cortical neurons (cortical neurons; HTLA 230 and HTLA ER, all exposure timings except HTLA ER 72 h): 1.26–4.78
- SI 24 h (RBCs; RBCs vs. HTLA 230): 16.81
- SI 48 h (RBCs; RBCs vs. HTLA 230): 33.66
- SI 72 h (RBCs; RBCs vs. HTLA 230): 39.98
- SI 24 h (RBCs; RBCs vs. HTLA ER): 12.56
- SI 48 h (RBCs; RBCs vs. HTLA ER): 11.49
- SI 72 h (RBCs; RBCs vs. HTLA ER): 12.98
